According to publication PMC4448979 (Pharmacology Research & Perspectives, 2015):
Blank lines part the entries; values can stand above or below the compound they belong to.

Columns and labels:
Type in all cases: cell-based
[1] = target: T1, human P2X4 (1321N1) (Homo sapiens, UniProt Q99571); assay: Fluo-4 calcium flux, fluorescence plate reader; settings: 1321-N1, read-out: decrease in remaining activity at 10 μmol/L
T1 sequence (Q99571 1-388): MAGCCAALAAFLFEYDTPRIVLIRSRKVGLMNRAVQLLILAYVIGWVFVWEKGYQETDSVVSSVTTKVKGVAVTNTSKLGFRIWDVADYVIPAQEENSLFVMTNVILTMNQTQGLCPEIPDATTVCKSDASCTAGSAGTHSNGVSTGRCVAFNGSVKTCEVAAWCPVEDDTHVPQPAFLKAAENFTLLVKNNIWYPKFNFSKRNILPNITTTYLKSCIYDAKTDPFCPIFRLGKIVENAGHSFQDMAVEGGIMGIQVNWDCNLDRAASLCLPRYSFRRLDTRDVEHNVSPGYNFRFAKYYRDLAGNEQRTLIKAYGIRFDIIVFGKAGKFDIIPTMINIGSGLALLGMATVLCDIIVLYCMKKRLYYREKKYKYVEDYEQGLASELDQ

[2] = target: T2, human P2X7 receptor (HEK-hP2X7) (Homo sapiens, UniProt Q99572); assay: YoPro1 dye uptake, fluorescence plate reader
T2 sequence (Q99572 1-595): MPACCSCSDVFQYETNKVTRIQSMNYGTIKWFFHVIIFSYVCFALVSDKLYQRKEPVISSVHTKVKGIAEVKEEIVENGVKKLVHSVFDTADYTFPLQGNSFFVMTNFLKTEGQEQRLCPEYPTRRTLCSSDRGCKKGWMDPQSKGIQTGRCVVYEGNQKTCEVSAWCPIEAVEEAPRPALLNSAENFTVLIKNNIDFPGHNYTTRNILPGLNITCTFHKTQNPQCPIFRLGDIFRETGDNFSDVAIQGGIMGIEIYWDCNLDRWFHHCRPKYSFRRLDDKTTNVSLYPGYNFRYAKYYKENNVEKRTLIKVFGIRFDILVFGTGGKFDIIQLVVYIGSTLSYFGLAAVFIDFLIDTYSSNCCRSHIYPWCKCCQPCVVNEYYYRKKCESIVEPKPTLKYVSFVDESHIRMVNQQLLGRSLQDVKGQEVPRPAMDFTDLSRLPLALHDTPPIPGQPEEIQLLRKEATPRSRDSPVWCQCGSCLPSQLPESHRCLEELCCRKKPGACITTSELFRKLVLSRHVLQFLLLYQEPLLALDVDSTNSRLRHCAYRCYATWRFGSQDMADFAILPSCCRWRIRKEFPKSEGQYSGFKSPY

[3] = target: T3, P2X7 receptor of mouse microglia BV2 cells (Mus musculus, UniProt Q9Z1M0); assay: whole-cell patch clamp; settings: antagonist; 100 μmol/L BzATP; -70 mV, room temperature, pH 7.4
T3 sequence (Q9Z1M0 1-595): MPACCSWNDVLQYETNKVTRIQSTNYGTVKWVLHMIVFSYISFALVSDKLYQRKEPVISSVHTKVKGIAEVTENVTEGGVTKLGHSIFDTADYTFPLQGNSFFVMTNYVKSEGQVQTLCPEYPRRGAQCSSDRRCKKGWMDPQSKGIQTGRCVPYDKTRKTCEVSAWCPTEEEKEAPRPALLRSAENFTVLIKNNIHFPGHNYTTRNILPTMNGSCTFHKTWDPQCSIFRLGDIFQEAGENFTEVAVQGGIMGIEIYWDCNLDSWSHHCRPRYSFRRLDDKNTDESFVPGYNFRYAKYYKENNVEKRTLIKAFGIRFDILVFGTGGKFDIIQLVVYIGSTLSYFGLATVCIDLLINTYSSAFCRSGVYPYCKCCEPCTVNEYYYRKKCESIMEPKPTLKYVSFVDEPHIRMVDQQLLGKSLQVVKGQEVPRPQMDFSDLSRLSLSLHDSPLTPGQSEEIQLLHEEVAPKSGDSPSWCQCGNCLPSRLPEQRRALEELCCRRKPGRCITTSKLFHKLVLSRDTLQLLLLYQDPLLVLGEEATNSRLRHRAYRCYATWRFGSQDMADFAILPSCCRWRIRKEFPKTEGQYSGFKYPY

[4] = target: T2, human P2X7 receptor (HEK-hP2X7); assay: YoPro1 dye uptake, fluorescence plate reader; settings: agonist; HEK-hP2X7 cells
[5] = target: T2, human P2X7 receptor (HEK-hP2X7); assay: cytosensor, cell impedance

remaining activity at 10 µM [1]: 27% | IC50 [2]: 11.2 nM | IC50 [3]: 1000 to 3000 nM
SMILES: O=C(NCC12CC3CC(CC(C3)C1)C2)c1cc(CCCNCCCO)ccc1Cl [AZD9056]

SMILES: Nc1ncnc2c1ncn2[C@@H]1O[C@H](COP(=O)(O)OP(=O)(O)OP(=O)(O)O)[C@@H](O)[C@H]1O [ATP]
YoPro1 dye uptake, fluorescence plate reader [4]: confirmed using the YoPro1 uptake assay upon stimulation of the target cells with ATP

EC50 [5]: 9600 ± 1800 nM
SMILES: Nc1ncnc2c1ncn2[C@@H]1O[C@H](COP(=O)(O)OP(=O)(O)OP(=O)(O)O)[C@@H](OC(=O)c2ccc(C(=O)c3ccccc3)cc2)[C@H]1O [BzATP, 2′, 3′–O–(4-benzoylbenzoyl)–ATP]
